The values that follow come from ChEMBL document CHEMBL3137667, “[Drug-induced liver injury; fourteenth updated edition of the bibliographic database of liver injuries and related drugs]” (Gastroenterol Clin Biol, 2004).

A short description of data set [1]: Highest frequency of moderate liver toxicity observed during clinical trials, expressed as a percentage. [column '% BIOL' in source]. The following applies: human.
The nature of data set [2]: Highest frequency of acute liver toxicity observed during clinical trials, expressed as a percentage. [column '% AIGUE' in source]. The following applies: human.
The conditions of data set [3]: human, serum.
The conditions of data set [4]: human, serum. The source holds these as a separate data set.
The conditions of data set [5]: human.
The conditions of data set [6]: human. This is another data set of the same source.
The conditions of data set [7]: human. This is another data set of the same source.
The conditions of data set [8]: human, serum, 4383 h.
The conditions of data set [9]: human. The source holds these as a separate data set.
For data set [10] the following is noted: human. The source holds these as a separate data set.
The conditions of data set [11]: human. The source holds these as a separate data set.
For data set [12] the following is noted: human. The source holds these as a separate data set.
The conditions of data set [13]: human. The source holds these as a separate data set.
The conditions of data set [14]: human. The source holds these as a separate data set.
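Throughout, for Hepatotoxicity (association with vascular disease): count of indexed literature references reporting vascular liver injury in humans, e.g. peliosis hepatitis, hepatic veno-occlusive disease or Budd-Chiari syndrome.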
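Throughout, for Hepatotoxicity (benign tumour): value is a count of indexed literature references citing a benign tumour confirmed by histopathology.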
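Throughout, for Hepatotoxicity (choleostasis): human cholestatic liver injury, shown by histopathology or by peak ALT or AST elevation over alkaline phosphatase ratio below 2, value counts indexed literature reports.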
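Throughout, for Hepatotoxicity (chronic liver disease): chronic liver injury confirmed by histopathology or persistently raised serum aminotransferase activity beyond 6 months, value given as the count of indexed literature references.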
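Throughout, for Hepatotoxicity (cirrhosis): value is a count of indexed literature references reporting cirrhosis confirmed by histopathology.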
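Throughout, for Hepatotoxicity (cytolytic): human cytolytic liver injury, shown by histopathology or by a ratio above 5 of peak ALT or AST elevation to alkaline phosphatase elevation, value counts indexed references.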
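Throughout, for Hepatotoxicity (granulomatous hepatitis): value is a count of indexed literature references reporting granulomatous liver disease confirmed by histopathology.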
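Throughout, for Hepatotoxicity (malignant tumour): malignant tumour confirmed by histopathology, value gives the count of indexed literature references reporting it.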
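Throughout, for Hepatotoxicity (severe hepatitis): human clinical data: severe hepatitis, meaning potentially life-threatening liver failure or clinically observed cases, the value counts how many indexed literature references report it.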
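Throughout, for Hepatotoxicity (steatosis): steatosis confirmed by histopathology, value is the count of indexed references.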

As to `CC(C)C[C@H](NC(=O)[C@H](CCCCN)NC(=O)CNC(=O)[C@H](CC(C)C)NC(=O)[C@@H](NC(=O)[C@@H]1CSSC[C@H](N)C(=O)N[C@@H](CO)C(=O)N[C@@H](CC(N)=O)C(=O)N[C@@H](CC(C)C)C(=O)N[C@@H](CO)C(=O)N[C@@H]([C@@H](C)O)C(=O)N1)C(C)C)C(=O)N[C@@H](CO)C(=O)N[C@@H](CCC(N)=O)C(=O)N[C@@H](CCC(=O)O)C(=O)N[C@@H](CC(C)C)C(=O)N[C@@H](Cc1c[nH]cn1)C(=O)N[C@@H](CCCCN)C(=O)N[C@@H](CC(C)C)C(=O)N[C@@H](CCC(N)=O)C(=O)N[C@H](C(=O)N[C@@H](Cc1ccc(O)cc1)C(=O)N1CCC[C@H]1C(=O)N[C@@H](CCCNC(=N)N)C(=O)N[C@H](C(=O)N[C@@H](CC(N)=O)C(=O)N[C@H](C(=O)NCC(=O)N[C@@H](CO)C(=O)NCC(=O)N[C@H](C(=O)N1CCC[C@H]1C(N)=O)[C@@H](C)O)[C@@H](C)O)[C@@H](C)O)[C@@H](C)O` [CALCITONIN SALMON], the results for the “Hepatotoxicity (moderate)” value in data set [1] and in data set [3] were 3.1% and 1, respectively. Also, the entries for the “Hepatotoxicity (acute)” value in [2] and in data set [4] were 0% and 0, respectively. Further, the “Hepatotoxicity (cytolytic)” value in [5] worked out at 0. The “Hepatotoxicity (choleostasis)” value in [6] was determined as 0. In addition, the “Hepatotoxicity (severe hepatitis)” value in data set [7] was 0. In addition, the “Hepatotoxicity (chronic liver disease)” value in [8] is 0. In addition, the “Hepatotoxicity (cirrhosis)” value in data set [9] worked out at 0. For the same molecule, the “Hepatotoxicity (granulomatous hepatitis)” value in [10] is 0. In addition, the “Hepatotoxicity (association with vascular disease)” value in [11] came to 0. The “Hepatotoxicity (steatosis)” value in data set [12] came to 0. In data set [13], the “Hepatotoxicity (malignant tumour)” value is listed as 0. The “Hepatotoxicity (benign tumour)” value in [14] came to 0.

As to `Cc1ccc(Cl)c(Nc2ccccc2C(=O)O)c1Cl` [MECLOFENAMIC ACID], the “Hepatotoxicity (moderate)” value came out at 0% in data set [1] and 2 in data set [3]. In addition, the “Hepatotoxicity (acute)” value in data set [2] was determined as 0%; in data set [4], 0. The “Hepatotoxicity (cytolytic)” value in data set [5] is 0. In addition, in data set [6], the “Hepatotoxicity (choleostasis)” value came out at 0. Moreover, in data set [7], the “Hepatotoxicity (severe hepatitis)” value worked out at 0. Besides, the “Hepatotoxicity (chronic liver disease)” value in [8] worked out at 0. Besides, the “Hepatotoxicity (cirrhosis)” value in [9] came to 0. Besides, the “Hepatotoxicity (granulomatous hepatitis)” value in data set [10] is 0. The “Hepatotoxicity (association with vascular disease)” value in data set [11] turned out to be 0. Also, the “Hepatotoxicity (steatosis)” value in data set [12] came to 0. In addition, in data set [13], the “Hepatotoxicity (malignant tumour)” value was found to be 0. In addition, the “Hepatotoxicity (benign tumour)” value in data set [14] is listed as 0.

For the molecule `O=C(Cc1cccs1)N[C@@H]1C(=O)N2C(C(=O)[O-])=C(C[n+]3ccccc3)CS[C@H]12` [CEPHALORIDINE], the “Hepatotoxicity (moderate)” value is 0% in [1] and 1 in data set [3]. Also, the “Hepatotoxicity (acute)” value in [2] was 0%; in [4], 0. The “Hepatotoxicity (cytolytic)” value in [5] was determined as 0. Further, the “Hepatotoxicity (choleostasis)” value in [6] amounted to 0. The “Hepatotoxicity (severe hepatitis)” value in data set [7] turned out to be 0. Also, in [8], the “Hepatotoxicity (chronic liver disease)” value is reported as 0. In addition, the “Hepatotoxicity (cirrhosis)” value in data set [9] is listed as 0. Besides, the “Hepatotoxicity (granulomatous hepatitis)” value in [10] is reported as 0. In addition, in data set [11], the “Hepatotoxicity (association with vascular disease)” value was 0. For the same molecule, the “Hepatotoxicity (steatosis)” value in data set [12] turned out to be 0. Moreover, the “Hepatotoxicity (malignant tumour)” value in [13] is given as 0. Moreover, the “Hepatotoxicity (benign tumour)” value in data set [14] is given as 0.

For the molecule `NC(=O)N1C(=O)/C(=C(\O)c2cccs2)c2cc(Cl)ccc21` [TENIDAP], the results for the “Hepatotoxicity (moderate)” value in [1] and in data set [3] were 18.8% and 3, respectively. The “Hepatotoxicity (acute)” value stood at 0.8% in [2] and 2 in data set [4]. For the same molecule, the “Hepatotoxicity (cytolytic)” value in [5] came to 1. In data set [6], the “Hepatotoxicity (choleostasis)” value was 1. Further, in [7], the “Hepatotoxicity (severe hepatitis)” value stood at 0. Moreover, the “Hepatotoxicity (chronic liver disease)” value in data set [8] came out at 0. The “Hepatotoxicity (cirrhosis)” value in [9] is listed as 0. The “Hepatotoxicity (granulomatous hepatitis)” value in [10] is reported as 0. The “Hepatotoxicity (association with vascular disease)” value in data set [11] stood at 0. Also, in data set [12], the “Hepatotoxicity (steatosis)” value is recorded as 0. For the same molecule, the “Hepatotoxicity (malignant tumour)” value in data set [13] came out at 0. Further, the “Hepatotoxicity (benign tumour)” value in [14] is listed as 0.

As to `CN(Cc1cc(Br)cc(Br)c1N)C1CCCCC1` [BROMHEXINE], the “Hepatotoxicity (moderate)” value stood at 0% in [1] and 1 in data set [3]. Further, the “Hepatotoxicity (acute)” value in [2] is 0%; in data set [4], 0. Moreover, the “Hepatotoxicity (cytolytic)” value in data set [5] was determined as 0. The “Hepatotoxicity (choleostasis)” value in [6] turned out to be 0. Moreover, the “Hepatotoxicity (severe hepatitis)” value in data set [7] is recorded as 0. Also, the “Hepatotoxicity (chronic liver disease)” value in data set [8] is reported as 0. In addition, the “Hepatotoxicity (cirrhosis)” value in [9] turned out to be 0. Further, in data set [10], the “Hepatotoxicity (granulomatous hepatitis)” value is on record as 0. Moreover, the “Hepatotoxicity (association with vascular disease)” value in data set [11] was 0. Besides, the “Hepatotoxicity (steatosis)” value in data set [12] is 0. Further, the “Hepatotoxicity (malignant tumour)” value in data set [13] was 0. Further, in data set [14], the “Hepatotoxicity (benign tumour)” value is on record as 0.

For the molecule POLOXAMER, the “Hepatotoxicity (moderate)” value in [1] is 7.7%; in data set [3], 1. The “Hepatotoxicity (acute)” value in data set [2] came to 0%; in [4], 0. Moreover, in [5], the “Hepatotoxicity (cytolytic)” value is 0. In data set [6], the “Hepatotoxicity (choleostasis)” value turned out to be 0. Moreover, in [7], the “Hepatotoxicity (severe hepatitis)” value was 0. Besides, in data set [8], the “Hepatotoxicity (chronic liver disease)” value is recorded as 0. For the same molecule, the “Hepatotoxicity (cirrhosis)” value in [9] turned out to be 0. Also, the “Hepatotoxicity (granulomatous hepatitis)” value in [10] is listed as 0. In addition, the “Hepatotoxicity (association with vascular disease)” value in data set [11] was found to be 0. For the same molecule, the “Hepatotoxicity (steatosis)” value in [12] was 0. Also, in data set [13], the “Hepatotoxicity (malignant tumour)” value is listed as 0. Further, the “Hepatotoxicity (benign tumour)” value in data set [14] is recorded as 0.

Turning to `CCCN1CCO[C@@H]2c3cc(O)ccc3CC[C@H]21` [NAXAGOLIDE], the “Hepatotoxicity (moderate)” value in data set [1] was found to be 11.1%; in [3], 1. For the same molecule, the “Hepatotoxicity (acute)” value in data set [2] was 0%; in data set [4], 0. In addition, the “Hepatotoxicity (cytolytic)” value in data set [5] turned out to be 0. For the same molecule, the “Hepatotoxicity (choleostasis)” value in data set [6] was 0. The “Hepatotoxicity (severe hepatitis)” value in data set [7] is 0. The “Hepatotoxicity (chronic liver disease)” value in data set [8] came to 0. Moreover, in data set [9], the “Hepatotoxicity (cirrhosis)” value was found to be 0. For the same molecule, the “Hepatotoxicity (granulomatous hepatitis)” value in data set [10] is recorded as 0. For the same molecule, the “Hepatotoxicity (association with vascular disease)” value in data set [11] stood at 0. Also, the “Hepatotoxicity (steatosis)” value in [12] is on record as 0. Further, the “Hepatotoxicity (malignant tumour)” value in data set [13] was determined as 0. The “Hepatotoxicity (benign tumour)” value in [14] is recorded as 0.

Turning to `NC(=O)OC[C@@H]1[C@H](NC(=O)/C(=N\OCC(=O)O)c2csc(N)n2)C(=O)N1S(=O)(=O)O` [CARUMONAM], the entries for the “Hepatotoxicity (moderate)” value in [1] and in [3] were 22% and 24, respectively. For the same molecule, the entries for the “Hepatotoxicity (acute)” value in [2] and in data set [4] were 0% and 0, respectively. In data set [5], the “Hepatotoxicity (cytolytic)” value was 0. In data set [6], the “Hepatotoxicity (choleostasis)” value is 0. For the same molecule, the “Hepatotoxicity (severe hepatitis)” value in data set [7] is reported as 0. Moreover, the “Hepatotoxicity (chronic liver disease)” value in data set [8] came out at 0. In addition, in [9], the “Hepatotoxicity (cirrhosis)” value was 0. Also, the “Hepatotoxicity (granulomatous hepatitis)” value in [10] was found to be 0. Besides, in data set [11], the “Hepatotoxicity (association with vascular disease)” value was 0. For the same molecule, the “Hepatotoxicity (steatosis)” value in data set [12] is given as 0. The “Hepatotoxicity (malignant tumour)” value in data set [13] came out at 0. The “Hepatotoxicity (benign tumour)” value in data set [14] was determined as 0.
